We go through one compound from US12629390B2, “Stabilized amorphous calcium carbonate for treatment of neurological, muscular and infertility diseases or conditions” (AMORPHICAL LTD., priority 2016, dated 2026).

One assay deals with mdx cell line. Put plainly: myotube formation, CK activity and contraction in mdx cell line. As to conditions: final Ca2+ 2 mM in Fusion Medium. Format: cell-based, mice.
In the next assay the test system is MBA-13 cells. The assay can be described thus: Alizarin red staining of MBA13 stem cells differentiating to osteoblasts. The assay is classed as cell-based. To be noted: 10 days in culture. How it is done: Two days following thawing, MBA-13 cells (received from Prof. Dov Zipori, Weizmann Institute of Science) were re-suspended in recombinant trypsin solution and seeded on a 96 wells plate, (Day “0”) in a concentration of 1×10^4 cells/well using MSC Nutristem® XF basal medium (Biological Industries, cat #05-200-1A) supplemented with Mesenchymal stem cells (MSC) supplement mix medium (Biological Industries cat #05-201-06) in a ratio of 50 ml:300 μl. […] Row G in the plate was treated with MSCgo medium (total 1.488 mM calcium). Row H of the plate was treated with MSC NutriStem® XF nutrient basal medium+supplement mix (total 1.488 mM calcium). On day 4, medium was exchanged with fresh preparations of ACC. […] Once the cells were fixated, two types of staining reagents were used to stain extracellular calcium or bone deposition in order to estimate osteoblasts functionality: (i) Alizarin red (Sigma A55333) and (ii) Alkaline Phosphatase (DAKO BCIP/NBT substrate system […]) as following: Alizarin red staining procedure-pH was adjusted to 4.2. Cells were washed twice with PBS and fixed with cold methanol for 5 minutes and then washed again with PBS. […] Following staining incubation, the samples were washed with water 2-3 times to remove unspecific staining.

Assay [1] deals with healthy skeletal muscle cultures. The assay can be described thus: myotube formation and contraction in healthy skeletal muscle cultures. The assay is classed as cell-based, rat. As to conditions: added at 1 mM (final Ca2+ 2 mM). How it is done: Stationary skeletal muscle cultures were prepared from healthy 1 day new born rat (Sprague Dawley, Harlan, Israel). The muscle tissue was dissected from posterior legs and was thoroughly minced. Digestion was performed with Trypsin-EDTA while gentle trituration. After 30 min the supernatant, containing dissociated cells, was collected and a fresh Trypsin-EDTA was added. This procedure was repeated two more times. Then, all supernatants were pooled, centrifuged, and the cell pellet was re-suspended in Proliferation Medium. Cells were seeded in a Gelatin coated 12 wells culture plates, 1×10^5 cells/well containing 1 mL of Proliferation Medium. Two days later, the medium was changed to Fusion Medium, which was then changed twice a week. The cultures were monitored by daily phase contrast microscopic observations from 24 hours after setting the cultures and onward.
Stock solution of 1% porcine gelatin in water, was sterilized by autoclave. Once cooled, 500 μl of the solution were added to each well of the 12-wells culture plat. After incubation for 20 min at room temperature, the excess solution was removed, and the cells were seeded.
For the proliferation stage, cells were cultured in: DMEM/F12 (containing 1 mM Ca^2+) +10% FBS, 25 μg/mL Gentamycin, and 2 mM L-Glutamine.
For the fusion stage the Proliferation Medium was changed with Fusion Medium, which was prepared as following: DMEM/F12 (containing 1 mM Ca2+), 2% horse serum (HS), 2 mM L-Glutamine, 25 μg/mL Gentamycin, and 4 units/100 mL Insulin (all purchased from Biological-Industries, Israel).
Control cultures were grown without further added calcium, or cultures enriched with free (soluble) stabilizer. The experiment was blinded by marking the various calcium preparations with arbitrary numerals only.
The components were added in one of the following ways: (i) aqueous suspensions of dry material; (ii) aqueous suspension of fresh material (before drying), or (iii) dissolved with HCl (to mimic the acidity which exists in the stomach. After dissolving was accomplished, the formed solutions were neutralized with 1M NaOH).

Protocol for mdx cell line: Cells from the Mdx cell line were seeded in a Gelatin coated 12 wells culture plate, 3×10^4 cells/well containing 1 mL of Proliferation Medium. Two days later (˜66% confluence), the medium was changed to Fusion Medium which was changed twice a week. The various calcium preparations were separately added to the Fusion Medium according to the treatment described in Table 3. Cultures were enriched with the various calcium preparations, at Ca^2+ concentration of 1 mM. Since the medium already contained 1 mM of calcium ions, then the final concentration of Ca2+ was of 2 mM.
The effects of the tested calcium preparations on cell proliferation, fusion to form myotubes and muscle contraction were monitored by daily phase contrast microscopic observation. At predetermined days, cultures were fixed in methanol for 20 minutes and then stained with Giemsa in order to evaluate the number of myotubes formed with time in cultures.
At predetermined days, cells were collected from culture wells (using a rubber policeman) and kept in 1 mL PBS (without Ca^2+) at −70° C. until analyzed. For CK measurement cell samples were thawed and physically lysed using a sonicator, to release the CK from muscle myotubes. CK concentration was determined using Creatine Kinase Activity Assay Kit (CK-NAC REAGENT SET, CURTISS, CHEM-INDEX INC, Hialeah, FL, USA).

As for `[Ca+2].[Cl-].[Cl-]` [CaCl2, calcium chloride], the “muscle contractions observed, day after seeding” value in the assay with mdx cell line is recorded as ≥ 10 days. Also, the “Alizarin Red staining signal” value with MBA-13 cells (additional 1 mM calcium in MSCgo rapid osteogenic medium, gelatin coating) is “weak signal”. In addition, the “large calcium deposition plaques” value in the assay on MBA-13 cells (additional 1 mM calcium) is listed as “not observed”. Besides, in assay [1], the “muscle fibers after 7 days” value was “fewer, thinner and shorter muscle fibers”. Further, the “early formation of many myotubes, time of cultivation” value in assay [1] (dry powder suspended in water) was “later”.
